# Reference: patent publication US7235691B2, “Crystalline forms of modafinil” (priority 2000, dated 2007)
# What was measured:
# [1] = Heating of crystalline forms, analysed by x-ray powder diffraction; format: physicochemical; details: for chemical decomposition on heating: heating/drying at about 100° C.; for crystalline form after heating in an oven: about 30 minutes at about 100° C.
# Procedure: X-ray diffraction data were acquired using a Philips powder X-ray diffractometer, Goniometer model 1050/70 at a scanning speed of 2° per minute, with a CUKα radiation of λ=1.5418 Å. The sample was gently ground and dusted over a zero background quartz plate to give a thin layer.
# Forms V and VI convert into modafinil Form I upon gentle heating to about 80° C. or above.
# Modafinil Form I may be separated from solvents conventionally by filtering or decanting and then drying.
# By Heating Modafinil Forms V or VI A small aliquot of Modafinil Forms V and VI are heated separately, for about 30 minutes, in an oven at about 100° C.
# [2] = format: physicochemical; details: for crystalline form conversion when suspended in water: time and temperature not stated; for crystalline form after suspension in distilled water: distilled water pH about 5.9, stirred about 24 hours at about 37° C.
Compound,chemical decomposition on heating [1],crystalline form conversion when suspended in water [2],crystalline form after suspension in distilled water [2],crystalline form after heating in an oven [1],further results
"NC(=O)C[S+]([O-])C(c1ccccc1)c1ccccc1 (racemic) [Form I, (±) 2-[(Diphenylmethyl)sulfinyl]acetamide, reference compound]",without undergoing significant chemical decomposition,–,–,–,crystalline form after drying at elevated temperature ([1]; dried at a temperature as high as 100° C.): without converting to another crystalline or amorphous form
"NC(=O)C[S+]([O-])C(c1ccccc1)c1ccccc1 (racemic) [Form II, (±) 2-[(Diphenylmethyl)sulfinyl]acetamide]",–,converted into Form I modafinil,–,–,–
"NC(=O)C[S+]([O-])C(c1ccccc1)c1ccccc1 (racemic) [Form III, (±) 2-[(Diphenylmethyl)sulfinyl]acetamide]",–,converts into modafinil Form II,determined to be modafinil Form II,–,–
"NC(=O)C[S+]([O-])C(c1ccccc1)c1ccccc1 (racemic) [Form IV, (±) 2-[(Diphenylmethyl)sulfinyl]acetamide]",–,–,determined to be modafinil Form I,–,–
"NC(=O)C[S+]([O-])C(c1ccccc1)c1ccccc1 (racemic) [Form V, (±) 2-[(Diphenylmethyl)sulfinyl]acetamide]",without significant decomposition,–,–,determined to be Form I,–
"NC(=O)C[S+]([O-])C(c1ccccc1)c1ccccc1 (racemic) [Form VI, (±) 2-[(Diphenylmethyl)sulfinyl]acetamide]",without significant decomposition,–,–,determined to be Form I,–
